These results are taken from patent publication US20050084500A1, “Growth promoter composition for animals” (priority 2001, published 2005).

Like-named read-outs stand apart in the source and are kept apart here.

A short description of series [1]: Influence of Lentinus edodes on the zootechnic performance of poultry (feeding trial). It is filed as in vivo, chickens. Particulars: Lentinus edodes at 0.5% of feed where present; for FCR: feed conversion ratio, chickens, end of trial; for Daily growth: one day old chickens, feed ad libitum. The text has this:
20×40 one day old chickens were provided with following feeds: control feed, control feeds supplemented with a growth-promoting component, control feed supplemented with 0.5% fungi (Lentinus edodes) and control feed supplemented with a growth-promoting component and with 0.5% fungi (Lentinus edodes). As used herein, the term “control feed” refers to a standard animal feed for meat-producing animals, i.e. feed that can be used in the animal husbandry field and is suitable to be fed to meat-producing animals to supply part or all of the meat-producing animal's nutrient requirements. Water and feed were supplied ad libitum. At the end of the trial, chickens were weighed and feed conversion ratio's were determined (Table 1). Microbial contents in the gastrointestinal tract were determined by plate counting.

Series [2] is classed as in vivo. The following applies: for FCR: feed conversion ratio per trial group; for FCR / Mortality: piglets 7-20 kg; for Mortality: whole trial; for Number of veterinary treatments: sum of all treatments performed on the animals during the total period of the trial; for Daily growth: weaned piglets, 7-20 kg, fed ad libitum. The text has this:
The present example relates to the effects of a composition according to the invention comprising a fungus at and least one growth promoting element on piglet performance of piglets in the phase 7-20 kg.
Commercial available weaning and starter feeds were used. During the first 2 weeks, a weaning feed was given to the piglets. From the third week till the end of the trial, i.e. at an average weight of 20 kg, the piglets received a starter feed. The trial feeds used are illustrated in table 2. During the whole trial period the piglets were fed ad libitum. The piglets under study were 120 weaned barrows and sows, with an age of 28 days at weaning. In the stable, 12 pens were present which contained each 10 piglets. For each trial, 3 replicates of 10 piglets were used. Ventilation and heating was automatically controlled. In each pen, 1 drinking nipple was present for water supply. Piglets were distinguished and weighed individually. They were allocated randomly to the different groups so that the average weight of each group was equal. A total of 120 animals was monitored. The following parameters were monitored during the trial: • the feed intake per trial group (measured at the end of the trial) • the weight of the individual animals (was measured at the beginning and at the end of the trial) • the feed conversion ratio per trial group was calculated • veterinary treatments and • mortality.

For `COC[C@H]1O[C@@H](OC2OC[C@@H]3O[C@]4(O[C@H]3[C@H]2OC(=O)C(C)C)O[C@H](C)[C@@](O)(C(C)=O)[C@@H]2OCO[C@H]24)[C@@H](OC)[C@@H](O)[C@@H]1O[C@@H]1O[C@H](C)[C@H](OC)[C@H](O[C@H]2C[C@@]3(C)OC4(C[C@@H](O)[C@H](O[C@H]5C[C@@H](O)[C@H](OC(=O)c6c(C)c(Cl)c(O)c(Cl)c6OC)[C@@H](C)O5)[C@@H](C)O4)O[C@@H]3[C@@H](C)O2)[C@H]1O` (stereo partly drawn) [control + Avilamycin, Avilamycin], in series [1], the FCR is 1.59 and the Daily growth was 53.99 g/chicken/day. Besides, in series [2], the FCR is reported as 1.65, the Mortality turned out to be 3.3%, the “Number of veterinary treatments” value is 25 and the Daily growth is reported as 365 g/pig/day.
As to `CC[C@@H](C(=O)[C@@H](C)[C@@H](O)[C@H](C)[C@@H]1O[C@@H]([C@@H](CC)C(=O)O)CC[C@@H]1C)[C@H]1O[C@]2(C=C[C@@H](O)[C@]3(CC[C@@](C)([C@H]4CC[C@](O)(CC)[C@H](C)O4)O3)O2)[C@H](C)C[C@@H]1C` [control + Salinomycine, Salinomycine], in series [1], the FCR amounted to 1.60 and the Daily growth is on record as 54.06 g/chicken/day. Also, in series [2], the FCR worked out at 1.70, the Mortality was 6.6%, the “Number of veterinary treatments” value turned out to be 26 and the Daily growth turned out to be 362 g/pig/day.
As to `O=CO` [control + formic acid, formic acid], in series [1], the FCR is on record as 1.55 and the Daily growth was determined as 52.18 g/chicken/day. For the same molecule, in series [2], the FCR is on record as 1.69, the Mortality came to 10.0%, the “Number of veterinary treatments” value worked out at 28 and the Daily growth is on record as 351 g/pig/day.
For `OP(O)O` [control + phophorous acid, phophorous acid], in series [1], the FCR was found to be 1.56 and the Daily growth turned out to be 52.23 g/chicken/day. Besides, in series [2], the FCR stood at 1.69, the Mortality came to 6.6%, the “Number of veterinary treatments” value is given as 30 and the Daily growth is on record as 346 g/pig/day.
For inulin [control + inulin], in series [1], the FCR is given as 1.65 and the Daily growth is 51.09 g/chicken/day. Besides, in series [2], the FCR was determined as 1.78, the Mortality is 10%, the “Number of veterinary treatments” value is given as 32 and the Daily growth came out at 330 g/pig/day.
